Experimental data published in PubChem BioAssay (NCI).
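Following 48 hours of exposure in 96-well plates, responses at five concentrations were used to interpolate endpoints linearly. Definition used: TGI = concentration required for complete inhibition of growth.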

Assays:
Assay in all cases: growth of human tumour cells (NCI), 48 h
DLD-1 colon = system: DLD-1 colon
KM12 colon = system: KM12 colon
HOP-18 NSCLC = system: HOP-18 NSCLC
KM20L2 colon = system: KM20L2 colon
DMS 273 small cell lung = system: DMS 273 small cell lung
DMS 114 small cell lung = system: DMS 114 small cell lung
M14 melanoma = system: M14 melanoma
LXFL 529 NSCLC = system: LXFL 529 NSCLC
SNB-19 CNS = system: SNB-19 CNS
K-562 leukemia = system: K-562 leukemia
NCI-H226 lung = system: NCI-H226 lung
HOP-92 NSCLC = system: HOP-92 NSCLC
DU-145 prostate = system: DU-145 prostate
HL-60(TB) leukemia = system: HL-60(TB) leukemia
SK-OV-3 ovarian = system: SK-OV-3 ovarian
SNB-75 CNS = system: SNB-75 CNS
A498 renal = system: A498 renal
MDA-MB-435 = system: MDA-MB-435
MCF7 breast = system: MCF7 breast
SF-295 CNS = system: SF-295 CNS

| SMILES | TGI (DLD-1 colon) | TGI (KM12 colon) | TGI (HOP-18 NSCLC) | TGI (KM20L2 colon) | TGI (DMS 273 small cell lung) | TGI (DMS 114 small cell lung) | TGI (M14 melanoma) | TGI (LXFL 529 NSCLC) | TGI (SNB-19 CNS) | TGI (K-562 leukemia) | TGI (NCI-H226 lung) | TGI (HOP-92 NSCLC) | TGI (DU-145 prostate) | TGI (HL-60(TB) leukemia) | TGI (SK-OV-3 ovarian) | TGI (SNB-75 CNS) | TGI (A498 renal) | TGI (MDA-MB-435) | TGI (MCF7 breast) | TGI (SF-295 CNS) |
| --- | --- | --- | --- | --- | --- | --- | --- | --- | --- | --- | --- | --- | --- | --- | --- | --- | --- | --- | --- | --- |
| COc1c2c(c3ccccc3c1O)C1C=CC2C1 (stereo not given) | 31.6 µM | 31.4 µM | 28.5 µM | 45.7 µM | 30.3 µM | 19.6 µM | 27.9 µM | 14.7 µM |  |  |  |  |  |  |  |  |  |  |  |  |
| Nc1[nH]nc2nc3ccccc3nc12 |  |  |  |  |  |  |  |  | > 100 µM | > 100 µM | > 100 µM | > 100 µM | > 100 µM | > 100 µM | > 100 µM | > 100 µM | > 100 µM | > 100 µM | > 100 µM | > 100 µM |
